Laboratory results taken from patent publication US20030134859A1 (SANKYO COMPANY, LIMITED, priority 2000, published 2003).
Where a name gives a salt, the structure may show the parent alone.

Test system: Mouse preadipocyte strain 3T3-L1
Assay: Inhibition of differentiation as an indication of acetic acid uptake
Format: cell-based
Settings: 0.1 μM test substance, control (0.01% dimethylsulfoxide) = 100%
Outline: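 Differentiation is indexed by 1 hr [2-14C]acetic acid incorporation, measured by scintillation counting and given as uptake relative to 0.01% DMSO control (100%). Mouse 3T3-L1 preadipocytes, pre-grown 10 days, received 0.1 μM test substance throughout a 4-day insulin/IBMX/dexamethasone induction, followed by 2 days' maintenance culture.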

First: O=C(Nc1cccc(C(=O)N2CCCC2)c1)c1cc([N+](=O)[O-])ccc1Cl [Example 31]
Second: Cc1ccc(S(=O)(=O)Nc2ccc(NC(=O)c3cc([N+](=O)[O-])ccc3Cl)cc2)cc1 [Example 32, N-[4-(4-Methylbenzene)sulfonylaminophenyl]-(2-chloro-5-nitrophenyl)carboxamide]
The “Rate of Uptake (%) of [2-14C] acetic acid” value of the first is higher: 85.9% for the first, 60.5% for the second.

Compared with O=C(Nc1ccncc1)c1cc([N+](=O)[O-])ccc1Cl [Example 49, N-(4-Pyridyl)-(2-chloro-5-nitrophenyl)carboxamide], O=C(Nc1ccc(Cl)nn1)c1cc([N+](=O)[O-])ccc1Cl [Example 89] is lower in “Rate of Uptake (%) of [2-14C] acetic acid” value: 69.6% for the first, 58.1% for the second.

With “N-[4-(4-Methylbenzoylamino)phenyl]phenyl]-(2-chloro-5-nitrophenyl)carboxamide [Example 122]” the “Rate of Uptake (%) of [2-14C] acetic acid” value was 75.4%.

Same assay, conditions: Mus musculus, 0.1 μM test substance, control (0.01% dimethylsulfoxide) = 100%, read-out: Rate of Uptake (%) of [2-14C] acetic acid

First: O=C(Nc1ccc(-c2ccc([N+](=O)[O-])cc2)cc1)c1cc([N+](=O)[O-])ccc1Cl [Example 9, N-[4-(4-Nitrophenyl)phenyl)-(2-chloro-5-nitrophenyl)carboxamide]
Second: O=C(Nc1ccc([N+](=O)[O-])cc1)c1cc([N+](=O)[O-])ccc1Cl [Example 23, N-(4-Nitrophenyl)-(2-chloro-5-nitrophenyl)carboxamide]
The activity at 0.1 µM of the first is higher: 59.9% for the first, 59.5% for the second.

Compared with O=C(Nc1ccc([N+](=O)[O-])cn1)c1cc([N+](=O)[O-])ccc1Cl [Example 24, N-(5-Nitropyridin-2-yl)-(2-chloro-5-nitrophenyl)carboxamide], O=C(Nc1cc([N+](=O)[O-])ccc1Cl)c1cc([N+](=O)[O-])ccc1Cl [Example 28, N-(2-Chloro-5-nitrophenyl)-(2-chloro-5-nitrophenyl)carboxamide] is higher in activity at 0.1 µM: 66.1% for the first, 87.8% for the second.

First: O=C(Nc1cccc([N+](=O)[O-])c1)c1cc([N+](=O)[O-])ccc1Cl [Example 25, N-(3-Nitrophenyl)-(2-chloro-5-nitrophenyl)carboxamide]
Second: O=C(Nc1nc2ccc([N+](=O)[O-])cc2s1)c1cc([N+](=O)[O-])ccc1Cl [Example 34, N-(6-Nitrobenzothiazol-2-yl)-(2-chloro-5-nitrophenyl)carboxamide]
The activity at 0.1 µM of the first is higher: 66.3% for the first, 60.8% for the second.

In the case of O=C(Nc1ccc(NC(=O)c2cc([N+](=O)[O-])ccc2Cl)nc1)c1cc([N+](=O)[O-])ccc1Cl [Example 64, 2,5-bis(2-Chloro-5-nitrobenzoylamino)pyridine], the activity at 0.1 µM is reported as 96.2%.

Same assay, conditions: Mus musculus, 3T3-L1, 0.1 μM test substance, control (0.01% dimethylsulfoxide) = 100%, read-out: Rate of Uptake (%) of [2-14C] acetic acid

First: CCCc1ccc(NC(=O)c2cc([N+](=O)[O-])ccc2Cl)cc1 [Example 15, N-(4-Propylphenyl)-(2-chloro-5-nitrophenyl)carboxamide]
Second: O=C(Nc1ccc(OC(F)(F)F)cc1)c1cc([N+](=O)[O-])ccc1Cl [Example 18, N-(4-Trifluoromethyloxyphenyl)-(2-chloro-5-nitrophenyl)carboxamide]
The activity at 0.1 µM of the first is higher: 78.4% for the first, 53.8% for the second.

Compared with N#Cc1cccc(NC(=O)c2cc([N+](=O)[O-])ccc2Cl)c1 [Example 21, N-(3-Cyanophenyl)-(2-chloro-5-nitrophenyl)carboxamide], Cl.O=C(Nc1ccncc1)c1cc([N+](=O)[O-])ccc1Cl [Example 146, N-(Pyridin-4-yl)-(2-chloro-5-nitrophenyl)carboxamide Hydrochloride] is lower in activity at 0.1 µM: 70.3% for the first, 60% for the second.

Going from O=C(Nc1nc(-c2cccs2)cs1)c1cc([N+](=O)[O-])ccc1Cl [Example 36, N-[4-(2-Thienyl)thiazol-2-yl)-(2-chloro-5-nitrophenyl)carboxamide] to O=C(Nc1nc(-c2ccc3ccccc3c2)cs1)c1cc([N+](=O)[O-])ccc1Cl [Example 42, N-[4-(2-Naphthyl)thiazol-2-yl)-(2-chloro-5-nitrophenyl)carboxamide], the activity at 0.1 µM rises from 29.2% to 60%.

First: O=C(Nc1cnc2ccccc2c1)c1cc([N+](=O)[O-])ccc1Cl [Example 55, N-(3-Quinolinyl)-(2-chloro-5-nitrophenyl)carboxamide]
Second: O=C(Nc1ccc(Cl)nc1)c1cc([N+](=O)[O-])ccc1Cl [Example 62, N-(6-Chloropyridin-3-yl)-(2-chloro-5-nitrophenyl)carboxamide]
The activity at 0.1 µM of the first is lower: 55.4% for the first, 82.9% for the second.

Going from O=C(Nc1nc2cc(Cl)ccc2o1)c1cc([N+](=O)[O-])ccc1Cl [Example 75, N-(5-Chlorobenzoxazol-2-yl)-(2-chloro-5-nitrophenyl)carboxamide] to O=C(Nc1cnccn1)c1cc([N+](=O)[O-])ccc1Cl [Example 140, N-(Pyrazin-2-yl)-(2-chloro-5-nitrophenyl)carboxamide], the activity at 0.1 µM falls from 80.1% to 72.4%.

Going from O=C(Nc1ncc(Br)cn1)c1cc([N+](=O)[O-])ccc1Cl [Example 77, N-(5-Bromopyrimidin-2-yl)-(2-chloro-5-nitrophenyl)carboxamide] to Nc1ccc(-c2ccc(NC(=O)c3cc([N+](=O)[O-])ccc3Cl)cc2)cc1 [Example 88, N-[4-(4-Aminophenyl)phenyl]-(2-chloro-5-nitrophenyl)carboxamide mono-hydrochloride], the activity at 0.1 µM falls from 62.7% to 56.4%.

First: Cc1c(C)c2c(c(C)c1O)C(=O)CC(C)(COc1ccc(NC(=O)c3cc([N+](=O)[O-])ccc3Cl)cc1)O2 (stereo not drawn) [Example 92, N-[4-(6-Hydroxy-2,5,7,8-tetramethyl-4-oxochroman-2-ylmethoxy)phenyl]-(2-chloro-5-nitrophenyl)carboxamide]
Second: CC(=O)Nc1ccc(-c2ccc(NC(=O)c3cc([N+](=O)[O-])ccc3Cl)cc2)cc1 [Example 118, N-[4-(4-Acetylaminophenyl)phenyl]-(2-chloro-5-nitrophenyl)carboxamide]
The activity at 0.1 µM of the first is lower: 63% for the first, 79.6% for the second.

First: CS(=O)(=O)Nc1ccc(-c2ccc(NC(=O)c3cc([N+](=O)[O-])ccc3Cl)cc2)cc1 [Example 93, N-[4-[4-(Methanesulfonylamino)phenyl]phenyl]-(2-chloro-5-nitrophenyl)carboxamide]
Second: Cc1ccc(S(=O)(=O)Nc2ccc(-c3ccc(NC(=O)c4cc([N+](=O)[O-])ccc4Cl)cc3)cc2)cc1 [Example 94, N-[4-[4-(4-Toluenesulfonylamino)phenyl]phenyl]-(2-chloro-5-nitrophenyl)carboxamide]
The activity at 0.1 µM of the first is higher: 90.3% for the first, 80.4% for the second.

Compared with Cc1nnc(NS(=O)(=O)c2ccc(NC(=O)c3cc([N+](=O)[O-])ccc3Cl)cc2)s1 [Example 101, N-[4-[(5-Methyl-[1,3,4]thiadiazol-2-yl)aminosulfonyl]phenyl]-(2-chloro-5-nitrophenyl)carboxamide], Cc1ccc(C(=O)Nc2nc3ccc(NC(=O)c4cc([N+](=O)[O-])ccc4Cl)cc3s2)cc1 [Example 149, N-[2-(4-Methylbenzoylamino)benzothiazol-6-yl]-(2-chloro-5-nitrophenyl)carboxamide] is lower in activity at 0.1 µM: 78.3% for the first, 76.5% for the second.

First: O=C(Nc1ccc(-c2ccc(NC(=O)c3cc([N+](=O)[O-])ccc3Cl)cc2)cc1)c1ccccc1 [Example 120, N-[4-(4-Benzoylaminophenyl)phenyl]-(2-chloro-5-nitrophenyl)carboxamide]
Second: O=C(Nc1ccc(-c2ccc(NC(=O)c3cc([N+](=O)[O-])ccc3Cl)cc2)cc1)c1cccnc1 [Example 124, N-[4-[4-(Pyridin-3-ylcarbonylamino)phenyl]phenyl]-(2-chloro-5-nitrophenyl)carboxamide]
The activity at 0.1 µM of the first is higher: 64.6% for the first, 60% for the second.

Test system: Rat white adipocytes
Assay: Stimulation of differentiation of the adipocytes (Oil Red O)
Format: cell-based
Settings: 100 nM test compound; 5 days; Oil Red O ABS550; control = 100%, blank = 0%; Table 7
Outline: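 Oil Red O lipid staining, absorbance 550 nm after DMSO extraction, quantified differentiation of rat white adipocytes exposed 5 days to compound (final 100 nM, 0.1% DMSO) in differentiation medium. Percent differentiation normalised between cell-free blank (0%) and DMSO control (100%).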

For Cc1ccc(S(=O)(=O)Nc2ccc(NC(=O)c3cc([N+](=O)[O-])ccc3Cl)cc2)cc1 [Example 32, N-[4-(4-Methylbenzene)sulfonylaminophenyl]-(2-chloro-5-nitrophenyl)carboxamide], the “Rate of Differentiation (%)” value was 114.6%.

Same assay, conditions: Rattus norvegicus, Adipocyte, 120 h, 100 nM test compound; 5 days; Oil Red O ABS550; control = 100%, blank = 0%; Table 7; read-out: Rate of Differentiation (%)

Going from O=C(Nc1ccc(-c2ccc([N+](=O)[O-])cc2)cc1)c1cc([N+](=O)[O-])ccc1Cl [Example 9, N-[4-(4-Nitrophenyl)phenyl)-(2-chloro-5-nitrophenyl)carboxamide] to O=C(Nc1nc(-c2ccc([N+](=O)[O-])cc2)cs1)c1cc([N+](=O)[O-])ccc1Cl [Example 246, N-[4-(4-Nitrophenyl)thiazol-2-yl]-(2-chloro-5-nitrophenyl)carboxamide], the activity at 0.1 µM rises from 116% to 120%.

Going from CCCc1ccc(NC(=O)c2cc([N+](=O)[O-])ccc2Cl)cc1 [Example 15, N-(4-Propylphenyl)-(2-chloro-5-nitrophenyl)carboxamide] to CCCN(CCC)c1ccc(NC(=O)c2cc([N+](=O)[O-])ccc2Cl)cc1 [Example 182, N-[4-(N,N-Dipropylamino)phenyl]-(2-chloro-5-nitrophenyl)carboxamide], the activity at 0.1 µM falls from 124% to 122%.

Compared with O=C(Nc1ccc(OC(F)(F)F)cc1)c1cc([N+](=O)[O-])ccc1Cl [Example 18, N-(4-Trifluoromethyloxyphenyl)-(2-chloro-5-nitrophenyl)carboxamide], O=C(Nc1ccc(C(=O)N2CCCCC2)cc1)c1cc([N+](=O)[O-])ccc1Cl [Example 159, N-[4-(Piperidylcarbonyl)phenyl]-(2-chloro-5-nitrophenyl)carboxamide] is higher in activity at 0.1 µM: 115% for the first, 123% for the second.

First: O=C(Nc1cc([N+](=O)[O-])ccc1Cl)c1cc([N+](=O)[O-])ccc1Cl [Example 28, N-(2-Chloro-5-nitrophenyl)-(2-chloro-5-nitrophenyl)carboxamide]
Second: O=C(Nc1nc2ccc([N+](=O)[O-])cc2s1)c1cc([N+](=O)[O-])ccc1Cl [Example 34, N-(6-Nitrobenzothiazol-2-yl)-(2-chloro-5-nitrophenyl)carboxamide]
The activity at 0.1 µM of the first is lower: 111% for the first, 140% for the second.

Compared with O=C(Nc1nc(-c2cccs2)cs1)c1cc([N+](=O)[O-])ccc1Cl [Example 36, N-[4-(2-Thienyl)thiazol-2-yl)-(2-chloro-5-nitrophenyl)carboxamide], O=C(Nc1ccc(NS(=O)(=O)c2ccccc2)cc1)c1cc([N+](=O)[O-])ccc1Cl [Example 127, N-(4-Benzenesulfonylaminophenyl)-(2-chloro-5-nitrophenyl)carboxamide] is higher in activity at 0.1 µM: 111% for the first, 112% for the second.

Compared with CC(C)(C)c1cc(NS(=O)(=O)c2cccc(NC(=O)c3cc([N+](=O)[O-])ccc3Cl)c2)cc(C(C)(C)C)c1O [Example 161, N-[3-[(3,5-di-tert-Butyl-4-hydroxyphenyl)aminosulfonyl]phenyl]-(2-chloro-5-nitrophenyl)carboxamide], CC(C)(C)c1cc(NS(=O)(=O)c2ccc(NC(=O)c3cc([N+](=O)[O-])ccc3Cl)cc2)cc(C(C)(C)C)c1O [Example 175, N-[4-[(3,5-di-tert-Butyl-4-hydroxyphenyl)aminosulfonyl]phenyl]-(2-chloro-5-nitrophenyl)carboxamide] is higher in activity at 0.1 µM: 113% for the first, 114% for the second.
